One assay has as its system fibroblast cell line. The experiment in a line: Procollagen expression in immortalized fibroblast cell line (Western blot). The assay is classed as cell-based. An excerpt: We next examined whether skin fibroblasts lines had similar response. This was done with dermal fibroblasts kindly provided by Dr. Bashar Kahaleh. […] The magnitude of this response is illustrated by comparison to maximal doses of TGFβ, the “classic” stimulus for fibrosis (see below). In addition, we observed that an immortalized fibroblast line responded similarly to MBG, ouabain and digoxin.
Response of dermal fibroblasts to MBG as compared with TGF beta. Note that increase in collagen expression in MBG is approximately 10 fold with 5 or 10 nM MBG.
A general note: Immunoblotting shows a protein as a band on a membrane.

In assay [1] the test system is isolated cardiac fibroblasts. The assay is classed as cell-based, rat. The note with it: 24 hours. As to the method: Preparation of adult rat cardiac fibroblasts was performed as described previously by Brilla et al. with modifications.
Western blot analysis was performed on protein isolated from tissue homogenates, cell culture whole cell lysates, or nuclear extracts as described previously.
Representative Western blot for procollagen and quantitative densitometric data obtained in response to different doses of (a) MBG (all N=10), (b) MBG 10 nM contrasted with different doses of ouabain (0.1 to 100 nM) and digoxin (10 nM; all N=8). c, ouabain sensitive Rb uptake as a function of MBG and ouabain concentration (N=4 at each concentration for both MBG and ouabain; data expressed as fraction of control). d, relative proline incorporation in the supernatant and matrix, both will and without collagenase digestion (total). Each group (controls and different doses of MBG) contains N=7 replicants. The difference between the total and after collagenase digestion is reported as collagen. The matrix is the sample that was obtained after removing supernatant and scraping the culture dish. e, mRNA for collagen 1 in MBG-treated (10 nM; N=8) or control (N=8) fibroblasts. f, procollagen stability after cycloheximide treatment. Time 0 is 1 hour after incubation with cycloheximide (20 μg/mL). […] Least-square regression line fit to control (CTL) and MBG data. Bars on quantitative graphs represent the mean.+−.SEM. *P<0.05 and **P<0.01 vs control.
The PP2, herbimycin AG1478, and N-acetyl cysteine were administered from 2 hours before the addition of MBG and continued throughout the 24 hours of MBG incubation (total of 26 hours). Each bar represents the mean.+−.SEM of n=8 experiments. b, effects of PP2 (1 μmol/L) and N-acetyle cysteine (2.5 mmol/L) on MBG (10 nM)-stimulated proline incorporation into collagen. Again, the PP2 an N-acetyl cysteine were added 2 hours before exposure to MBG. Each bar represents the mean.+−.SEM of N=5 experiments. c, effects of MBG 10 nM on procollagen content in SYF and SYF+ cells. Representative Western blots are shown above quantitative data. SYF blots loaded with 15 μg of protein and SYF+blots loaded with 10 μg of protein. Each bar represents the mean.+−SEM of N-6 determinations In each group. **[…] vs. control.
The effect of 24 hours of MBG (1 and 10 nM) on TGF-β, Smad 2/3, Smad 4, and pSmad 2/3 expression determined by Western blot. b and c, effects of 24 hours of MBG (10 nM), TGFβ(5 ng/mL), and the TGF-β receptor antagonist SB431542 ([…] on procollagen-1 expression (Western blot) and radiolabeled proline incorporation, respectively also were carried out. SB431542 was added 2 hours before exposure to either TGFβ or MBG (total of 26-hour exposure). Each bar represents the mean.+−.SEM of 6 to 8 determinations. *P<0.05, **P<0.01 vs. control.

SMILES strings stand for the structures. Like-named read-outs stand apart in the source and are kept apart here.

As for `C[C@]12CC[C@H](O)C[C@@]1(O)CC[C@@H]1[C@@H]2CC[C@]2(C)[C@@H](c3ccc(=O)oc3)C[C@H]3O[C@]132` [MBG, marinobufagenin], the “Effect on fibroblast cell line expression of procollagen” value with fibroblast cell line is given as “Comparable effect”. In addition, the “Increase of procollagen content (Western blot)” value in assay [1] (10^−8 M) and in assay [1] (10^−9 M) was “about 2 fold” in each case.

Values taken from patent US9072751B2, “Na/K-ATPase ligand” (priority 2006, dated 2015).
